± gives the uncertainty stated by the source.
Test: xn = mol fraction of the nth substance listed
Conditions: 101.33 kPa

With `NCCCN` + OCCOCCOCCOCCO the viscosity (293.15 K, x2 = 0.0197) was 2.27 ± 0.07 mPa·s, the viscosity (293.15 K, x2 = 0.0407) was 2.72 ± 0.08 mPa·s and the viscosity (293.15 K, x2 = 0.0631) was 3.37 ± 0.1 mPa·s. The viscosity (293.15 K, x2 = 0.0871) was 4.07 ± 0.13 mPa·s, the viscosity (293.15 K, x2 = 0.1129) was 5.06 ± 0.16 mPa·s and the viscosity (293.15 K, x2 = 0.1406) was 6.38 ± 0.2 mPa·s. It also gave a viscosity (293.15 K, x2 = 0.1705) of 8.2 ± 0.26 mPa·s, a viscosity (293.15 K, x2 = 0.2028) of 10.6 ± 0.33 mPa·s and a viscosity (293.15 K, x2 = 0.238) of 13.9 ± 0.44 mPa·s. The viscosity (293.15 K, x2 = 0.2762) was 18.5 ± 0.59 mPa·s, the viscosity (293.15 K, x2 = 0.3181) was 24.6 ± 0.79 mPa·s and the viscosity (293.15 K, x2 = 0.3641) was 33.1 ± 1.1 mPa·s. The viscosity (293.15 K, x2 = 0.4148) was 43.8 ± 1.4 mPa·s, the viscosity (293.15 K, x2 = 0.4711) was 57.6 ± 1.8 mPa·s and the viscosity (293.15 K, x2 = 0.5338) was 71.2 ± 2.2 mPa·s. For the same compound, the viscosity (293.15 K, x2 = 0.6042) was 81.6 ± 2.6 mPa·s, the viscosity (293.15 K, x2 = 0.6838) was 85.1 ± 2.7 mPa·s and the viscosity (293.15 K, x2 = 0.7745) was 81.2 ± 2.6 mPa·s. It also gave a viscosity (293.15 K, x2 = 0.8788) of 71.9 ± 2.2 mPa·s, a viscosity (298.15 K, x2 = 0.0197) of 1.95 ± 0.06 mPa·s and a viscosity (298.15 K, x2 = 0.0407) of 2.32 ± 0.07 mPa·s. For the same compound, the viscosity (298.15 K, x2 = 0.0631) was 2.84 ± 0.09 mPa·s, the viscosity (298.15 K, x2 = 0.0871) was 3.41 ± 0.11 mPa·s and the viscosity (298.15 K, x2 = 0.1129) was 4.2 ± 0.13 mPa·s. The viscosity (298.15 K, x2 = 0.1406) was 5.25 ± 0.16 mPa·s, the viscosity (298.15 K, x2 = 0.1705) was 6.64 ± 0.21 mPa·s and the viscosity (298.15 K, x2 = 0.2028) was 8.44 ± 0.26 mPa·s. The viscosity (298.15 K, x2 = 0.238) was 10.9 ± 0.34 mPa·s, the viscosity (298.15 K, x2 = 0.2762) was 14.2 ± 0.45 mPa·s and the viscosity (298.15 K, x2 = 0.3181) was 18.7 ± 0.6 mPa·s. For the same compound, the viscosity (298.15 K, x2 = 0.3641) was 24.9 ± 0.79 mPa·s, the viscosity (298.15 K, x2 = 0.4148) was 32.6 ± 1 mPa·s and the viscosity (298.15 K, x2 = 0.4711) was 41.4 ± 1.3 mPa·s. For the same compound, the viscosity (298.15 K, x2 = 0.5338) was 50.7 ± 1.6 mPa·s, the viscosity (298.15 K, x2 = 0.6042) was 57.9 ± 1.8 mPa·s and the viscosity (298.15 K, x2 = 0.6838) was 60.9 ± 1.9 mPa·s. For the same compound, the viscosity (298.15 K, x2 = 0.7745) was 59.1 ± 1.8 mPa·s, the viscosity (298.15 K, x2 = 0.8788) was 53.1 ± 1.6 mPa·s and the viscosity (303.15 K, x2 = 0.0197) was 1.76 ± 0.05 mPa·s. The viscosity (303.15 K, x2 = 0.0407) was 2.08 ± 0.06 mPa·s, the viscosity (303.15 K, x2 = 0.0631) was 2.52 ± 0.08 mPa·s and the viscosity (303.15 K, x2 = 0.0871) was 2.99 ± 0.09 mPa·s. The viscosity (303.15 K, x2 = 0.1129) was 3.64 ± 0.11 mPa·s, the viscosity (303.15 K, x2 = 0.1406) was 4.48 ± 0.14 mPa·s and the viscosity (303.15 K, x2 = 0.1705) was 5.62 ± 0.18 mPa·s. It also gave a viscosity (303.15 K, x2 = 0.2028) of 7.08 ± 0.22 mPa·s, a viscosity (303.15 K, x2 = 0.238) of 9.08 ± 0.29 mPa·s and a viscosity (303.15 K, x2 = 0.2762) of 11.6 ± 0.37 mPa·s. For the same compound, the viscosity (303.15 K, x2 = 0.3181) was 15.1 ± 0.48 mPa·s, the viscosity (303.15 K, x2 = 0.3641) was 19.6 ± 0.62 mPa·s and the viscosity (303.15 K, x2 = 0.4148) was 25.2 ± 0.8 mPa·s. It also gave a viscosity (303.15 K, x2 = 0.4711) of 31.7 ± 1 mPa·s, a viscosity (303.15 K, x2 = 0.5338) of 38.4 ± 1.2 mPa·s and a viscosity (303.15 K, x2 = 0.6042) of 43.7 ± 1.4 mPa·s. It also gave a viscosity (303.15 K, x2 = 0.6838) of 46 ± 1.4 mPa·s, a viscosity (303.15 K, x2 = 0.7745) of 45 ± 1.4 mPa·s and a viscosity (303.15 K, x2 = 0.8788) of 41 ± 1.3 mPa·s. It also gave a viscosity (308.15 K, x2 = 0.0197) of 1.6 ± 0.05 mPa·s, a viscosity (308.15 K, x2 = 0.0407) of 1.86 ± 0.06 mPa·s and a viscosity (308.15 K, x2 = 0.0631) of 2.25 ± 0.07 mPa·s. It also gave a viscosity (308.15 K, x2 = 0.0871) of 2.64 ± 0.08 mPa·s, a viscosity (308.15 K, x2 = 0.1129) of 3.21 ± 0.1 mPa·s and a viscosity (308.15 K, x2 = 0.1406) of 3.92 ± 0.12 mPa·s. The viscosity (308.15 K, x2 = 0.1705) was 4.86 ± 0.15 mPa·s, the viscosity (308.15 K, x2 = 0.2028) was 6.05 ± 0.19 mPa·s and the viscosity (308.15 K, x2 = 0.238) was 7.62 ± 0.24 mPa·s. The viscosity (308.15 K, x2 = 0.2762) was 9.67 ± 0.3 mPa·s, the viscosity (308.15 K, x2 = 0.3181) was 12.4 ± 0.39 mPa·s and the viscosity (308.15 K, x2 = 0.3641) was 15.8 ± 0.5 mPa·s. It also gave a viscosity (308.15 K, x2 = 0.4148) of 20.1 ± 0.63 mPa·s, a viscosity (308.15 K, x2 = 0.4711) of 24.9 ± 0.78 mPa·s and a viscosity (308.15 K, x2 = 0.5338) of 30 ± 0.93 mPa·s. The viscosity (308.15 K, x2 = 0.6042) was 34 ± 1.1 mPa·s, the viscosity (308.15 K, x2 = 0.6838) was 36 ± 1.1 mPa·s and the viscosity (308.15 K, x2 = 0.7745) was 35.5 ± 1.1 mPa·s. For the same compound, the viscosity (308.15 K, x2 = 0.8788) was 32.7 ± 1 mPa·s, the viscosity (313.15 K, x2 = 0.0197) was 1.31 ± 0.04 mPa·s and the viscosity (313.15 K, x2 = 0.0631) was 1.97 ± 0.06 mPa·s. It also gave a viscosity (313.15 K, x2 = 0.0871) of 2.34 ± 0.07 mPa·s, a viscosity (313.15 K, x2 = 0.1129) of 2.83 ± 0.09 mPa·s and a viscosity (313.15 K, x2 = 0.1406) of 3.42 ± 0.11 mPa·s. For the same compound, the viscosity (313.15 K, x2 = 0.1705) was 4.2 ± 0.13 mPa·s, the viscosity (313.15 K, x2 = 0.2028) was 5.2 ± 0.16 mPa·s and the viscosity (313.15 K, x2 = 0.238) was 6.48 ± 0.2 mPa·s. The viscosity (313.15 K, x2 = 0.2762) was 8.11 ± 0.26 mPa·s, the viscosity (313.15 K, x2 = 0.3181) was 10.3 ± 0.32 mPa·s and the viscosity (313.15 K, x2 = 0.3641) was 12.8 ± 0.4 mPa·s. It also gave a viscosity (313.15 K, x2 = 0.4148) of 16.1 ± 0.51 mPa·s, a viscosity (313.15 K, x2 = 0.4711) of 19.7 ± 0.62 mPa·s and a viscosity (313.15 K, x2 = 0.5338) of 23.5 ± 0.73 mPa·s. For the same compound, the viscosity (313.15 K, x2 = 0.6042) was 26.8 ± 0.83 mPa·s, the viscosity (313.15 K, x2 = 0.6838) was 28.4 ± 0.87 mPa·s and the viscosity (313.15 K, x2 = 0.7745) was 28.3 ± 0.87 mPa·s. The viscosity (313.15 K, x2 = 0.8788) was 26.4 ± 0.81 mPa·s, the viscosity (318.15 K, x2 = 0.0197) was 1.26 ± 0.04 mPa·s and the viscosity (318.15 K, x2 = 0.0407) was 1.48 ± 0.05 mPa·s. For the same compound, the viscosity (318.15 K, x2 = 0.0631) was 1.75 ± 0.05 mPa·s, the viscosity (318.15 K, x2 = 0.0871) was 2.08 ± 0.06 mPa·s and the viscosity (318.15 K, x2 = 0.1129) was 2.48 ± 0.08 mPa·s. For the same compound, the viscosity (318.15 K, x2 = 0.1406) was 3 ± 0.09 mPa·s, the viscosity (318.15 K, x2 = 0.1705) was 3.62 ± 0.11 mPa·s and the viscosity (318.15 K, x2 = 0.2028) was 4.42 ± 0.14 mPa·s. The viscosity (318.15 K, x2 = 0.238) was 5.45 ± 0.17 mPa·s, the viscosity (318.15 K, x2 = 0.2762) was 6.84 ± 0.21 mPa·s and the viscosity (318.15 K, x2 = 0.3181) was 8.42 ± 0.26 mPa·s. It also gave a viscosity (318.15 K, x2 = 0.3641) of 10.5 ± 0.33 mPa·s, a viscosity (318.15 K, x2 = 0.4148) of 13 ± 0.41 mPa·s and a viscosity (318.15 K, x2 = 0.4711) of 15.8 ± 0.49 mPa·s. It also gave a viscosity (318.15 K, x2 = 0.5338) of 18.7 ± 0.58 mPa·s, a viscosity (318.15 K, x2 = 0.6042) of 21 ± 0.65 mPa·s and a viscosity (318.15 K, x2 = 0.6838) of 22.4 ± 0.69 mPa·s. It also gave a viscosity (318.15 K, x2 = 0.7745) of 22.5 ± 0.69 mPa·s and a viscosity (318.15 K, x2 = 0.8788) of 21.1 ± 0.65 mPa·s.
